# Earlier results in patent EP4732851A9, “LINKER, ANTIBODY-DRUG CONJUGATE, AND PREPARATION METHOD THEREFOR” (Fudan University, priority 2024, dated 2025).
# Conditions: background statement; cited from earlier work
substance,measurement,value
PNU-159682,activity compared to MMDX and doxorubicin,3000 fold
